# Measured values as given in the NIST ThermoML archive (doi:10.1016/j.jct.2012.03.034).
# Numbers after ± are expanded uncertainties.
# Experiments:
# [1] = xn = mol fraction of the nth substance listed; settings: 101 kPa, Liquid, x2 = 0; for speed of sound: Linear variable-path acoustic interferometer; for mass density: Vibrating tube method; for viscosity: dual vibrating plate viscometer, AandD Co. Ltd Model SV-10
# [2] = 298.15 K, 101.33 kPa, Liquid; for speed of sound: Linear variable-path acoustic interferometer; for mass density: Vibrating tube method; for viscosity: dual vibrating plate viscometer, AandD Co. Ltd Model SV-10
Compound,speed of sound ([1]; 298.15 K) [m/s],mass density ([1]; 298.15 K) [kg/m3],viscosity ([1]; 298.15 K) [mPa·s],speed of sound ([1]; 303.15 K) [m/s],mass density ([1]; 303.15 K) [kg/m3],viscosity ([1]; 303.15 K) [mPa·s],speed of sound ([1]; 308.15 K) [m/s],mass density ([1]; 308.15 K) [kg/m3],viscosity ([1]; 308.15 K) [mPa·s],speed of sound ([1]; 313.15 K) [m/s],mass density ([1]; 313.15 K) [kg/m3],viscosity ([1]; 313.15 K) [mPa·s],speed of sound [2] [m/s],mass density [2] [kg/m3],viscosity [2] [mPa·s]
CN1CCCC1=O [N-methylpyrrolidone] + CC[NH2+]CC.O=S(=O)([O-])O,1572 ± 2,1025.9 ± 0.3,1.66 ± 0.03,1552 ± 2,1023.74 ± 0.3,1.49 ± 0.03,1528 ± 2,1019.25 ± 0.3,1.39 ± 0.03,1520 ± 2,1014.74 ± 0.3,1.31 ± 0.03,,,
CC(=O)O.CCN(CC)CC [triethylammonium acetate],,,,,,,,,,,,,1840 ± 2,1015.86 ± 0.32,24.14 ± 0.39
CC(=O)[O-].CC[NH2+]CC [diethylammonium acetate],,,,,,,,,,,,,1608 ± 2,1021.41 ± 0.32,16.36 ± 0.23
CC[NH2+]CC.O=S(=O)([O-])O [diethylammonium hydrogen sulfate],,,,,,,,,,,,,1432 ± 2,1283.95 ± 0.61,34.1 ± 0.63
CN1CCCC1=O [N-methylpyrrolidone] + CC(=O)O.CCN(CC)CC,1572 ± 2,1025.9 ± 0.3,1.66 ± 0.03,1552 ± 2,1023.74 ± 0.3,1.49 ± 0.03,1528 ± 2,1019.25 ± 0.3,1.39 ± 0.03,1520 ± 2,1014.74 ± 0.3,1.31 ± 0.03,,,
CN1CCCC1=O [N-methylpyrrolidone] + CC(=O)[O-].CC[NH2+]CC,1572 ± 2,1025.9 ± 0.3,1.66 ± 0.03,1552 ± 2,1023.74 ± 0.3,1.49 ± 0.03,1528 ± 2,1019.25 ± 0.3,1.39 ± 0.03,1520 ± 2,1014.74 ± 0.3,1.31 ± 0.03,,,
CN1CCCC1=O [N-methylpyrrolidone] + CC[NH+](CC)CC.O=S(=O)([O-])O,1572 ± 2,1025.9 ± 0.3,,1552 ± 2,1023.74 ± 0.3,,1528 ± 2,1019.25 ± 0.3,1.39 ± 0.03,1520 ± 2,1014.74 ± 0.3,1.31 ± 0.03,,,
CC[NH+](CC)CC.O=S(=O)([O-])O [triethylammonium hydrogen sulfate],,,,,,,,,,,,,1874 ± 2,1142.89 ± 0.45,235 ± 13
CN1CCCC1=O [N-methylpyrrolidone],,,,,,,,,,,,,1552 ± 2,1025.9 ± 0.31,1.66 ± 0.03
